US12383624B2, “Cargo delivery system and composition comprising the same” (SEOUL NATIONAL UNIVERSITY R&DB FOUNDATION, priority 2018, dated 2025)

What was measured:
[1] = target: T1, p-53 (Homo sapiens, UniProt P04637, R273H); assay: target protein degradation by immunoblotting (Experimental Example 6); assay type: cell-based; conditions: PANC-1 cell line, 24 hours
T1 construct: endogenous in cells; host or cells: PANC-1
Experimental: (§1) In order to evaluate the target proteion degradation efficacy by Examples 14 to 33 according the disclosure, the following experiment was conducted.
(§2) First, as cell lines primarily expressing the target protein, Human kidney-derived cancer cells, HEK293T (ATCC, CRL-3216), human prostate-derived cancer cells, LNcap (Korean Cell Line Bank, Korean Cell Line Research Foundation, KCLB No. 80018), mouse embryonic fibroblast, MEF (ATCC, SCRC-1008), human cervical cancer cells, HeLa (Korean Cell Line Bank, Korean Cell Line Research Foundation, KCLB No. 10002), human blood-derived cells, K562 (Korean Cell Line Bank, Korean Cell Line Research Foundation, KCLB No. 10243), human blood-derived cells, THP-1 (Korean Cell Line Bank, Korean Cell Line Research Foundation, KCLB No. 40202), human lung-derived cancer cells, A549 (Korean Cell Line Bank, Korean Cell Line Research Foundation, KCLB No. 10185), human breast-derived cancer cells, MCF7 (Korean Cell Line Bank, Korean Cell Line Research Foundation, KCLB No. 30022), human neuroblastoma, SH-SY5Y cell lines (Korean Cell Line Bank, Korean Cell Line Research Foundation, KCLB No. 22266), human pancreatic cancer cells, PANC-1 (Korean Cell Line Bank, Korean Cell Line Research Foundation, KCLB No. 21469) were cultured, respectively, in an incubator maintained at 5% carbon dioxide, using DMEM containing 10% FBS and 1% streptomycin/penicillin, RPMI1640, or MEM medium, and then the respective cells were dispensed in 12-well plate. Additional incubation was performed for 24 hours to ensure that each cell completely fixed to the surface of the plate.
(§3) In order to confirm whether Compounds A to W of Examples 14 to 33 degrade the target protein respectively, the cultured cells were treated with the compound of each example for 24 hours and then collected.
(§4) In this case, HEK293T, which is human kidney-derived cancer cells, LNcap, which is human prostate-derived cancer cells, and MEF cell line, which is mouse embryonic fibroblasts, were treated with Example 14 (Compound A). HEK293T, which is human kidney-derived cancer cells, was treated with Example 15 (Compound B). HEK293T cell line, which is human kidney-derived cancer cells, and HeLa cell line, which is cervical-derived cancer cells, were treated with Example 16 (Compound C). HEK293T cell line, which is human kidney-derived cancer cells, was treated with Example 17 (Compound D). K562 cell line, which is human blood-derived cells, was treated with Example 18 (Compound E). HEK293T cell line, which is human kidney-derived cancer cells, was treated with Example 19 (Compound F). THP-1 cell line, which is human blood-derived cells, was treated with Example 20 (Compound G). A549 cell line, which is human lung-derived cancer cells, was treated with Example 21 (Compound H). A549 cell line, which is human lung-derived cancer cells, was treated with Example 22 (Compound I). MCF7 cell line, which is human breast-derived cancer cells, was treated with Example 23 (Compound J). HEK293T cell line, which is […], was treated with Example 24 (Compound L). SH-SY5Y, which is human neuroblastoma, and HeLa cell line, which is cervical-derived cancer cells, were treated with Example 25 (Compound M). THP-1 cell line, which is human blood-derived cells, was treated with Example 26 (Compound P). SH-SY5Y, which is human neuroblastoma, and HeLa cell line, which is cervical-derived cancer cells, were treated with Example 27 (Compound Q). SH-SY5Y, which is human neuroblastoma, and HeLa cell line, which is cervical-derived cancer cells, were treated with Example 28 (Compound R). HeLa cell line, a human cervical-derived cancer cell, was treated with Example 29 (Compound S). SH-SY5Y cell line, which is human neuroblastoma, was treated with Example 30 (Compound T). SH-SY5Y cell line, which is human neuroblastoma, was treated with Example 31 (Compound U). PANC-1 cell line, which is human pancreatic-derived cancer cells, was treated with Example 32 (Compound V). […]

[2] = test system: BRD4; assay: as above; assay type: cell-based, human, mouse; conditions: HEK293T, LNcap and MEF cell lines, 24 hours
Experimental: as §1, §2, §3
(§5) In this case, HEK293T, which is human kidney-derived cancer cells, LNcap, which is human prostate-derived cancer cells, and MEF cell line, which is mouse embryonic fibroblasts, were treated with Example 14 (Compound A). […]

[3] = test system: BRD2; assay: as above; assay type: cell-based, human, mouse; conditions: HEK293T, LNcap and MEF cell lines, 24 hours
Experimental: as §1, §2, §3, §5

[4] = test system: BRD3; assay: as above; assay type: cell-based, human, mouse; conditions: HEK293T, LNcap and MEF cell lines, 24 hours
Experimental: as §1, §2, §3, §5

[5] = target: T2, Chk1 (Homo sapiens, UniProt O14757); assay: as above; assay type: cell-based; conditions: HEK293T cell line, 24 hours
T2 construct: as cell lines primarily expressing the target protein; endogenous in cells; host or cells: HEK293T
T2 sequence (O14757 whole entry): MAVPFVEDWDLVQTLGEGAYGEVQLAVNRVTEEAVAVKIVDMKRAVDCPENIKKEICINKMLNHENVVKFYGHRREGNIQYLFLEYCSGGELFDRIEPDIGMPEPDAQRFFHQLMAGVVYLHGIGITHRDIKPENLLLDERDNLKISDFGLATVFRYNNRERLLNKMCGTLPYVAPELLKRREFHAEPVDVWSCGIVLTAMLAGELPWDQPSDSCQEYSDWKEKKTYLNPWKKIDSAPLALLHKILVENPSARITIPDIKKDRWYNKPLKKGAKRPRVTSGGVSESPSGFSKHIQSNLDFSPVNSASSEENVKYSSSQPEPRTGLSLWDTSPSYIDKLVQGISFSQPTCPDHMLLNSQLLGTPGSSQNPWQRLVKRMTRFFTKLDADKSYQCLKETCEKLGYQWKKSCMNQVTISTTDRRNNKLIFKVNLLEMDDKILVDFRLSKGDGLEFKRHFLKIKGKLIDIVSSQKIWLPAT
Experimental: as §1, §2, §3, §4

[6] = test system: p62 and each target protein; assay: p62-mediated delivery of target proteins to autophagy by immunofluorescence staining and confocal microscopy; assay type: cell-based; conditions: cells cultured 24 hours with compound
Experimental: In order to confirm the efficacy of P62-mediated delivery of target proteins to autophagy after treatment with the example compounds of the disclosure, immunofluorescence staining was performed by using p62 and each target protein as markers. The cover glass was placed on a 24-well plate for immunofluorescence staining, cell lines primarily expressing the target protein or gene recombinant cell lines were cultured. The cells were dispensed and cultured 24 hours, and then treated with Example 1 (ATCRET-1104), Example 5 (Anle138b F105), Example 7 (Vinclozolin 2204), Example 8 (PHTPP 1304), Example 9 (Baicalein 2204), Example 10 (Resveratrol 1105), Example Example 11 (BTA-1 1104), Example 30 (Compound T) according to the disclosure, respectively. The cells were further cultured for 24 hours for the action of the compounds, the medium was removed, and the cells were fixed using formaldehyde at room temperature. In order to prevent non-specific staining, the cells were reacted with the blocking solution at room temperature for 1 hour, and then the p62 antibody and target protein antibody diluted at a certain ratio were treated using the block solution, and then reacted at room temperature for 1 hour. […]

[7] = test system: Tau; assay: target protein degradation by immunoblotting (Experimental Example 6); assay type: cell-based, human; conditions: SH-SY5Y cell line, 24 hours
Experimental: as §1, §2, §3, §4

[8] = target: T3, ACVR1 (Homo sapiens, UniProt Q04771); assay: as above; assay type: cell-based; conditions: HEK293T and HeLa cell lines, 24 hours
T3 construct: as cell lines primarily expressing the target protein; endogenous in cells; host or cells: HEK293T, HeLa
T3 sequence (Q04771 21-509): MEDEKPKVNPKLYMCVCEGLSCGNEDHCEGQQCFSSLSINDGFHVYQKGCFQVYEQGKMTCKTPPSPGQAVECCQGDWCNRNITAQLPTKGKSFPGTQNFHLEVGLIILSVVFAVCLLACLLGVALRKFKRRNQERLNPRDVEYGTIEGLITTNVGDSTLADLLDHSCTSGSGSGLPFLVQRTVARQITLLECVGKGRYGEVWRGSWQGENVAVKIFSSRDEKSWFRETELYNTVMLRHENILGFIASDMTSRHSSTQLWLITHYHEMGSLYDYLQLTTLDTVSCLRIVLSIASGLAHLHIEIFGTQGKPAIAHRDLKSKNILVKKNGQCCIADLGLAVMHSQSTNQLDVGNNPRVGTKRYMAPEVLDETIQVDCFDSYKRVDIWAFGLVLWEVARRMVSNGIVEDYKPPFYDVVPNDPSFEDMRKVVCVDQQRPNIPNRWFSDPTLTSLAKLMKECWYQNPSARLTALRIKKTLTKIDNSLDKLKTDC
Experimental: as §1, §2, §3, §4

[9] = test system: PDE4; assay: as above; assay type: cell-based, human; conditions: HEK293T, 24 hours
Experimental: as §1, §2, §3, §4

With CN(CCOCCOCCOCCNC[C@@H](O)COc1ccc(OCc2ccc(F)cc2)c(OCc2ccc(F)cc2)c1)c1ccc2nc3ccc(=[N+](C)C)cc-3sc2c1 [Example 32, (R)—N-(7-((15-(3,4-bis((4-fluorobenzyl)oxy)phenoxy)-14-hydroxy-3,6,9-trioxa-12-azapentadecyl) (methyl)amino)-3H-phenothiazin-3-ylidene)-N-methylmethanaminium 2,2,2-trifluoroacetate] as the compound, how does the “degradation of target protein p-53 (decrease in level vs Control)” value [1] read?
The value was “can be degraded”.

What does the source list for Cc1sc2c(c1C)C(c1ccc(Cl)cc1)=N[C@@H](CC(=O)NCCOCCOCCNC[C@@H](O)COc1ccc(OCc3ccccc3)c(OCc3ccccc3)c1)c1nnc(C)n1-2 [Example 14, N-(2-(2-(2-(((R)-3-(3,4-bis(benzyloxy)phenoxy)-2-hydroxypropyl)amino)ethoxy)ethoxy)ethyl)-2-((S)-4-(4-chlorophenyl)-2,3,9-trimethyl-6H-thieno[3,2-f][1,2,4]triazolo[4,3-a][1,4]diazepin-6-yl)acetamide]?
degradation of target protein BRD4 (decrease in level vs Control) [2]: can be degraded; degradation of target protein BRD2 (decrease in level vs Control) [3]: can be degraded; degradation of target protein BRD3 (decrease in level vs Control) [4]: can be degraded

With NC(=O)Nc1cc(-c2cccc(F)c2)sc1C(=O)N[C@H]1CCCN(CCOCCOCCNC[C@@H](O)COc2cccc(OCCc3ccccc3)c2)C1 [Example 17, 5-(3-fluorophenyl)-N—((S)-1-(2-(2-(2-(((R)-2-hydroxy-3-(3-phenethoxyphenoxy)propyl)amino)ethoxy)ethoxy)ethyl)piperidin-3-yl)-3-ureidothiophene-2-carboxamide] as the compound, how does the “degradation of target protein Chk1 (decrease in level vs Control)” value [5] read?
The value was “can be degraded”.

O=C(CCCc1ccccc1)NCCOCCOCCOCCNC[C@@H](O)COc1cccc(OCc2ccc(F)cc2)c1 [Example 30, (R)—N-(15-(3-((4-fluorobenzyl)oxy)phenoxy)-14-hydroxy-3,6,9-trioxa-12-azapentadecyl)-4-phenylbutanamide] was tested. Which “intracellular puncta formation of p62 proteins and of target proteins, and local co-existence thereof” value [6] did it give?
Its value is “increase gradually”.

What about the “degradation of target protein Tau (decrease in level vs Control)” value [7] of the same compound?
Its value is “can be degraded”.

For CN(CCOCCOCCOCCNC[C@@H](O)COc1cccc(OCc2ccc(F)cc2)c1)c1ccc2nc3ccc(=[N+](C)C)cc-3sc2c1.O=C([O-])C(F)(F)F [Example 33, (R)—N-(7-((15-(3-((4-fluorobenzyl)oxy)phenoxy)-14-hydroxy-3,6,9-trioxa-12-azapentadecyl) (methyl)amino)-3H-phenothiazin-3-ylidene)-N-methylmethanaminium 2,2,2-trifluoroacetate], which “degradation of target protein p-53 (decrease in level vs Control)” value [1] is on record?
The value was “can be degraded”.

O[C@H](CNCCOCCOCCN1CCN(c2ccc(-c3cnc4c(-c5cccc6ncccc56)cnn4c3)cc2)CC1)COc1cccc(OCCc2ccccc2)c1 [Example 16, (R)-1-(3-phenethoxyphenoxy)-3-((2-(2-(2-(4-(4-(3-(quinolin-5-yl)pyrazolo[1,5-a]pyrimidin-6-yl)phenyl)piperazin-1-yl)ethoxy)ethoxy)ethyl)amino)propan-2-ol] was tested. Which “degradation of target protein ACVR1 (decrease in level vs Control)” value [8] did it give?
Its value is “can be degraded”.

For COc1ccc([C@]2(C#N)CC[C@@H](C(=O)NCCOCCOCCNCc3ccc(OCc4ccccc4)c(OCc4ccccc4)c3)CC2)cc1OC1CCCC1 [Example 15, (1s,4s)-N-(2-(2-(2-((3,4-bis(benzyloxy)benzyl)amino)ethoxy)ethoxy)ethyl)-4-cyano-4-(3-(cyclopentyloxy)-4-methoxyphenyl)cyclohexane-1-carboxamide], which “degradation of target protein PDE4 (decrease in level vs Control)” value [9] is on record?
Its value is “can be degraded”.
